Legend:
[1] = target: Cholinesterase (Equus caballus) (UniProt P81908); conditions: 1 mM
Description: Inhibition of equine serum BChE at 1 mM

Acetylcholinesterase [2] = target: T1, Acetylcholinesterase (Homo sapiens, UniProt P22303); test: Reversible competitive inhibition of human AChE using acetylthiocholine iodide as substrate measured over 5 mins by Dixon plot analysis
Acetylcholinesterase [3] = target: T2, Acetylcholinesterase (Electrophorus electricus, UniProt O42275); test: Reversible competitive inhibition of electric eel AChE using acetylthiocholine iodide as substrate measured over 5 mins by Dixon plot analysis
Cholinesterase [4] = target: T3, Cholinesterase (Equus caballus, UniProt P81908); test: Inhibition of equine serum BChE using acetylthiocholine iodide as substrate measured over 5 mins by Dixon plot analysis
Cholinesterase [5] = target: T3, Cholinesterase; test: (§1) Reversible competitive inhibition of equine serum BChE using acetylthiocholine iodide as substrate measured over 5 mins by Ellman's method
[6] = target: Cholinesterase (Equus caballus) (UniProt P81908); test: as §1
Acetylcholinesterase [7] = target: T1, Acetylcholinesterase; test: Inhibition of human AChE using acetylthiocholine iodide as substrate measured over 5 mins by Ellman's method
[8] = target: Acetylcholinesterase (Electrophorus electricus) (UniProt O42275); test: (§2) Inhibition of electric eel AChE using acetylthiocholine iodide as substrate measured over 5 mins by Ellman's method
Acetylcholinesterase [9] = target: T2, Acetylcholinesterase; test: as §2
[10] = Toxicity in Balb/c mouse hemidiaphragm assessed as effect on endplate potentials half decay after 30 to 60 mins mins in presence of conotoxin GIIIB; format: tissue-based, Diaphragm
[11] = Toxicity in Balb/c mouse hemidiaphragm assessed as effect on amplitude of indirectly evoked tetanic muscle contractions at 8.43 uM after 60 mins; format: tissue-based, Diaphragm; conditions: 1 h
[12] = Toxicity in Balb/c mouse hemidiaphragm assessed as effect on indirectly evoked muscle twitch amplitudes at 8.43 uM after 60 mins; format: tissue-based, Diaphragm; conditions: 1 h
[13] = Toxicity in Balb/c mouse hemidiaphragm assessed as effect on amplitude of directly evoked tetanic muscle contractions at 8.43 uM after 60 mins; format: tissue-based, Diaphragm; conditions: 1 h
[14] = Toxicity in Balb/c mouse hemidiaphragm assessed as effect on amplitude of endplate potentials after 30 to 60 mins mins in presence of conotoxin GIIIB; format: tissue-based, Diaphragm
[15] = Toxicity in Balb/c mouse hemidiaphragm assessed as effect on directly evoked muscle twitch amplitudes at 8.43 uM after 60 mins; format: tissue-based, Diaphragm; conditions: 1 h
[16] = target: Acetylcholinesterase (Electrophorus electricus) (UniProt O42275); test: Inhibition of electric eel AChE using acetylthiocholine iodide as substrate at 8.43 uM measured over 5 mins by Ellman's method relative to control

T3 sequence (P81908 whole entry): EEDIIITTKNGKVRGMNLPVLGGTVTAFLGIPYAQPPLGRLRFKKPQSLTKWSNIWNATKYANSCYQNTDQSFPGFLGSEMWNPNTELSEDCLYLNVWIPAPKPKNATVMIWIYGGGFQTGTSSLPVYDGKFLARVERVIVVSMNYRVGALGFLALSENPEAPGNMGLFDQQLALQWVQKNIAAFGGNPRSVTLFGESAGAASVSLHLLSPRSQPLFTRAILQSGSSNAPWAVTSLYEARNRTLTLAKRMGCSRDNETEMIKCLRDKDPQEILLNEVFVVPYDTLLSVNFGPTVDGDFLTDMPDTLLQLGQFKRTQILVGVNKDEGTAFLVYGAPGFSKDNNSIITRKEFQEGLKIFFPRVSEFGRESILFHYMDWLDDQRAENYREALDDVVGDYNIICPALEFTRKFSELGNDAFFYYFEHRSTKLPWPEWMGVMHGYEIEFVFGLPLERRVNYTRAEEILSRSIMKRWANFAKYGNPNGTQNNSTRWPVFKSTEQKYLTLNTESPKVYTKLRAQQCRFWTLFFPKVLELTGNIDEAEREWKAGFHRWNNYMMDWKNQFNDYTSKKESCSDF
Sequence of Cholinesterase (Equus caballus) (P81908 whole entry): as above
T2 sequence (O42275 whole entry): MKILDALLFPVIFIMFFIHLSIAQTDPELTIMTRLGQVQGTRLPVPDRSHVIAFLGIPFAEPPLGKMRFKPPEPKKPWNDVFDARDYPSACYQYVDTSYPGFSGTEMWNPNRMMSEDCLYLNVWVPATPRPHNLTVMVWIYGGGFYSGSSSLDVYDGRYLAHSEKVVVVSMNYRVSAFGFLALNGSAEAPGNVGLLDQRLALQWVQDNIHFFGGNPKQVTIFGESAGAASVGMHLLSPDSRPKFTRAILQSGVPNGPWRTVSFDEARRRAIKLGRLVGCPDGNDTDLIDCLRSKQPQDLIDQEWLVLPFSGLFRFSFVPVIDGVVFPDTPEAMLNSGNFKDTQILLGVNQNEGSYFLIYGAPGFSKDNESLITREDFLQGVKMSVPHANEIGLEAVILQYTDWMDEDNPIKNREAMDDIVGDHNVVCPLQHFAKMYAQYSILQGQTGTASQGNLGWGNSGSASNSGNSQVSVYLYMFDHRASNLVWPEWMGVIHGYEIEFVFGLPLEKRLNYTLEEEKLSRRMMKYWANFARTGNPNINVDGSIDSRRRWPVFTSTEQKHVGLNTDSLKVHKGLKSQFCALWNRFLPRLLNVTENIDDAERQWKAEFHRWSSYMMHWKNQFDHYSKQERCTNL
Sequence of Acetylcholinesterase (Electrophorus electricus) (O42275 24-633 limits assumed): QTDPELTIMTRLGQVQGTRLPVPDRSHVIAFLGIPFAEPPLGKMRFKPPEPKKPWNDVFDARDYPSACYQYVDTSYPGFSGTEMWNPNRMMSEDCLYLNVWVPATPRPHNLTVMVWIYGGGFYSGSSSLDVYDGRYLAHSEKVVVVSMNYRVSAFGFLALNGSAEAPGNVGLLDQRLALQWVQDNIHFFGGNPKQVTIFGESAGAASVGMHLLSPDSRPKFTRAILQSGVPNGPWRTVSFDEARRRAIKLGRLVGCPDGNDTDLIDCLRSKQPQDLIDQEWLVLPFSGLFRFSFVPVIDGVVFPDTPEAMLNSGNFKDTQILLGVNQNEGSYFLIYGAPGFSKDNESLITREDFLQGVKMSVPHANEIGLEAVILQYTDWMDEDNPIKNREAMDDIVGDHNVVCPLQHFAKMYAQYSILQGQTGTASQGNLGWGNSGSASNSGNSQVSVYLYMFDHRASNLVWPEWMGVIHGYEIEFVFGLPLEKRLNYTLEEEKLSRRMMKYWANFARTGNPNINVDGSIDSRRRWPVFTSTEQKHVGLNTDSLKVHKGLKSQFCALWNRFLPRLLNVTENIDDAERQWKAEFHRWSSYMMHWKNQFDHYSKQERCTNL
T1 sequence (P22303 whole entry): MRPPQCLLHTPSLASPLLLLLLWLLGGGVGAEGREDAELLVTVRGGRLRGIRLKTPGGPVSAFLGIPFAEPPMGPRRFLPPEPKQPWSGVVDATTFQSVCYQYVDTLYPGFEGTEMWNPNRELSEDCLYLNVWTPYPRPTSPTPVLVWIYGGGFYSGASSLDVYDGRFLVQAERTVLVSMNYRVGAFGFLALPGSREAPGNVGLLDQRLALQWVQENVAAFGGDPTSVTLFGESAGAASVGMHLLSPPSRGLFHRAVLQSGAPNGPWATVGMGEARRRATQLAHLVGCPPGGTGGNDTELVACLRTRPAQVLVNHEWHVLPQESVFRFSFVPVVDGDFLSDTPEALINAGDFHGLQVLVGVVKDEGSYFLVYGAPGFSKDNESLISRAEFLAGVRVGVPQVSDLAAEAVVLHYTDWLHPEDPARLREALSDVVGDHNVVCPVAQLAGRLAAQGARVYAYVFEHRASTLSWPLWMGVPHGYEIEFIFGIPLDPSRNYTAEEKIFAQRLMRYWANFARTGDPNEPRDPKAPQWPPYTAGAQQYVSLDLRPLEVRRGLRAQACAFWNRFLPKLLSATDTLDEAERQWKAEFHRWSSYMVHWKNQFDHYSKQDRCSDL

Row | Structure (SMILES) | inhibition [1] | Ki (Acetylcholinesterase [2]) | Ki (Acetylcholinesterase [3]) | Ki (Cholinesterase [4]) | IC50 (Cholinesterase [5]) | inhibition [6] | IC50 (Acetylcholinesterase [7]) | inhibition (Acetylcholinesterase [7]) | inhibition [8] | IC50 (Acetylcholinesterase [9]) | Activity [10] | Activity [11] | Activity [12] | Activity [13] | Activity [14] | Activity [15] | inhibition [16]
1 | COc1ccc2c3c1O[C@H]1C[C@@H](O)C=C[C@@]31CCN(C)C2 | 80.3% | – | – | – | – | – | – | – | – | – | – | – | – | – | – | – | –
2 | O=C1C2=C(C3=NCCc4c[nH]c1c43)C1(C=CN2)C=C(Br)C(O)C(Br)=C1 (stereo not given) | – | 98 µM | 3.5 µM | 17.5 µM | 15.8 µM | Dose-dependent effect | 152 µM | Dose-dependent effect | Dose-dependent effect | 14.5 µM | – | – | – | – | – | – | –
3 | CNC(=O)Oc1ccc2c(c1)[C@]1(C)CCN[C@@H]1N2 | – | – | – | – | 28.5 µM | – | 14.5 µM | – | – | 3 µM | – | – | – | – | – | – | –
4 | O=C(O)C(F)(F)F.O=C1CC[C@@]2(C=CNC3=C2C2=NCCc4c[nH]c(c42)C3=O)C=C1Br | – | 56.2 µM | 1.6 µM | 5 µM | 7 µM | Dose-dependent effect | 116 µM | Dose-dependent effect | Dose-dependent effect | 1.3 µM | Non-Toxic | Non-Toxic | Non-Toxic | Non-Toxic | Non-Toxic | Non-Toxic | 80%
5 | O=C1C2=C3C4=[N+](CCc5c[nH]c1c54)[C@@H]1C(=O)C=C4S[C@@H](C[C@@]43[C@H]1O)N2 [DISCORHABDIN L] | – | – | 15 µM | – | 531 µM | Dose-dependent effect | 158 µM | Dose-dependent effect | Dose-dependent effect | 25.7 µM | – | – | – | – | – | – | –
6 | O=C1C=C2S[C@H]3C[C@]2(C=C1Br)C1=C(N3)C(=O)c2[nH]cc3c2C1=NCC3 [DISCORHABDIN B] | – | 22.8 µM | 1.9 µM | 76 µM | 137 µM | Dose-dependent effect | 49.4 µM | Dose-dependent effect | Dose-dependent effect | 5.7 µM | – | – | – | – | – | – | –
